Reference: ChEMBL document CHEMBL1153962, “Thiodisaccharides with galactofuranose or arabinofuranose as terminal units: synthesis and inhibitory activity of an exo beta-D-galactofuranosidase” (Bioorg Med Chem, 2009)
The source made the active and inactive calls. The rule behind the calls is not given here.

Tests used:
[1] = test system: Penicillium fellutanum; test: Inhibition of Penicillium fellutanum exo beta-D-galactofuranosidase assessed as 4-nitrophenol release at 0.2 to 1 mM by spectrophotometry
[2] = Inhibition of Penicillium fellutanum exo beta-D-galactofuranosidase assessed as 4-nitrophenol release by spectrophotometry

CO[C@H]1O[C@H](CS[C@@H]2O[C@@H](CO)[C@H](O)[C@H]2O)[C@@H](O)[C@H](O)[C@H]1O
Activity [1]: inactive

O=C1O[C@@H]([C@H](O)CO)[C@H](O)[C@H]1O
IC50 [2]: 20 µM

CO[C@H]1O[C@H](CS[C@@H]2O[C@@H]([C@H](O)CO)[C@H](O)[C@H]2O)[C@H](O)[C@H](O)[C@H]1O
IC50 [2]: > 1000 µM
Activity [1]: Active

CC1(C)O[C@H]2[C@@H](O1)[C@@H](CS[C@@H]1O[C@@H]([C@H](O)CO)[C@H](O)[C@H]1O)O[C@@H]1OC(C)(C)O[C@@H]12
IC50 [2]: > 1000 µM
Activity [1]: Active
